# Laboratory results published in US4088778A, “Method for the treatment of hypertension” (priority 1975, dated 1978).
# Tests used:
# [1] = Clinical Experiment II: kidney function test; assay type: in vivo, human patients; settings: in mg/dL (unit assumed)
# Procedure: (§1) 75 patients of hypertension or arteriosclerosis having subjective symptoms were tested. Some of them suffered from complications such as ischemia heart disease and cerebral thrombosis. They are detailed in Table 11.
# (§2) Two capsules were administered at one time, and the administration was conducted 3 times per day after eating. The duration of the continuous administration was 4 weeks. Combined use of drugs having the same functions as those of TN (vitamin E drugs, nicotinic acid, its derivatives and peripheral vasolidators) and minor tranquilizers was prohibited.
# The kidney function test results are shown in Table 17, from which it will readily be understood that the variation of BUN values was within the normal region.
# [2] = Clinical Experiment II: improvement of subjective symptoms; assay type: in vivo, human patients
# Procedure: as §1, §2
# Changes of various subjective symptoms of patients of hypertension were collectively examined, and at the time of termination of the administration, the degrees of improvements were judged and evaluated in both the TN administered group and the P group, to obtain results shown in Table 22.
# Acute toxicity on rats = assay type: in vivo; settings: mice and rats, maximum amount that can be administered
# Excerpt: Toxicities of TN and TA will now be described.
# [3] = Clinical Experiment II: urine test; assay type: in vivo, human patients
# Procedure: as §1, §2
# [4] = Clinical Test I, double blind: general improvement; assay type: in vivo, human patients; settings: for General improvement: Not Changed / General improvement: Partial Improvement / General improvement: Remarkable Improvement / General improvement: Slight Improvement / General improvement: Worsened: number of patients
# Procedure: (§3) Two capsules were orally administered at one time, and the administration was conducted three times a day after eating. The period of the administration was principally 4 weeks or 6 weeks. During this period, the administration was performed continuously. Combined administration of drugs having the same function as that of TN (vitamin E drugs, nicotinic acid, its derivatives and peripheral vasolidators) was prohibited.
# The general improvement was evaluated by the attendant physician based on subjective symptoms and test results according to the following scale:
# i: remarkable improvement
# When 2, 4 or 6 weeks had passed from the start of the administration, the improvement was evaluated based on the symptoms before the administration.
# [5] = Clinical Experiment II, double blind: blood pressure; assay type: in vivo, human patients; settings: for Maximum Pressure, Average Value, all patients / Maximum Pressure, Average Value, patients of hypertension / Maximum Pressure, Average Value, no hypotensive agent in combination with TN / Maximum Pressure, Average Value, hypotensive agent administered in combination with TN: in mmHg (unit assumed)
# Procedure: Results of the clinical experiment conducted according to the double blind method in a different hospital will now be described.
# as §1, §2
# (a) Results of Blood Pressure Test: Variations of the blood pressure in all the patients and in the patients of hypertension alone are shown in Tables 12 and 13.
# The change of the blood pressure in the patients of hypertension to whom a hypotensive agent was administrated in combination with TN is shown in Table 14, and the change of the blood pressure in the patients to whom no hypotensive agent was administrated in combination with TN is shown in Table 15.
# In each of the foregoing Tables, N indicates the number of the patients, and S.D. denotes the standard deviation.
# [6] = Subacute and chronic toxicities; assay type: in vivo; settings: rats 100 to 1000 mg/Kg and beagles 100 mg/Kg daily, 3 or 6 months
# Procedure: (B) Subacute and Chronic Toxicities:
# TN and TA were separately administered to rats and beagles at daily doses of 100 to 1000 mg/Kg and 100 mg/Kg, respectively, continuously for 3 or 6 months.
# [7] = Clinical Test I, double blind: blood pressure; assay type: in vivo, human patients; settings: for Maximum Blood Pressure in Hypertensives, Average Value ± S.D. / Maximum Blood Pressure, Average Value±S.D.: in mmHg (unit assumed)
# Procedure: 94 patients of hypertension or arteriosclerosis having subjective symptoms were tested, and some of them suffered from complications such as ischemia heart disease, hypertensive heart disease and encephalomalacia.
# As the active drug, there were employed hard capsules, each containing 100 mg of TN.
# as §3, with “prohibited. Drugs which had been continuously administered since before the start of the administration of TN were similarly administered according to the disease case and symptom, and change of the prescription during the test was avoided.” for “prohibited.”
# With respect to data collected separately in the TN group and the P group, the significant difference was examined according to the statistical method.
# [8] = Teratogenetic property test; assay type: in vivo, pregnant mice or pregnant rats; settings: orally, 100 to 1200 mg/Kg
# Excerpt: (C) Teratogenetic Property Test:
# [9] = conclusion of both clinical experiments
# [10] = 2 weeks, N 34, TN 200 mg three times a day
# [11] = 4 weeks, N 38, TN 200 mg three times a day
# [12] = 6 weeks, N 20, TN 200 mg three times a day
# [13] = before administration, N 43, all patients (Table 6)
compound,measurement,setting,value
"Cc1c(C)c2c(c(C)c1OC(=O)c1cccnc1)CCC(C)(CCCC(C)CCCC(C)CCCC(C)C)O2 (racemic) [TN, dl-α-tocopheryl nicotinate]","BUN, Average Value","[1]; after administration, N 27, S.D. ±8.48",14.99
same,"BUN, Average Value","[1]; before administration, N 31, S.D. ±6.23",14.74
same,Improvement of subjective symptoms: Improvement Ratio,"[2]; P group 52.94, P < 0.05",86.36%
same,degree of improvement of subjective symptoms versus P group,[2]; [9],higher than in the P group
same,"improving rush of blood, dizzy feeling, stiffness in the shoulders, stiffness in the nape, heaviness in the head and insomnia",[2]; [9],especially good effects
same,degree of improvement of subjective symptoms versus P group,[2]; level of significance lower than 5%,excellent over that in the P group at a level of significance lower than 5%
same,Improvement of subjective symptoms: Not Changed,"[2]; number of patients, total 22",3
same,Improvement of subjective symptoms: Partial Improvement,"[2]; number of patients, total 22",6
same,Improvement of subjective symptoms: Remarkable Improvement,"[2]; number of patients, total 22",7
same,Improvement of subjective symptoms: Slight Improvement,"[2]; number of patients, total 22",6
same,Improvement of subjective symptoms: Worsened,"[2]; number of patients, total 22",0
same,animals killed in acute toxicity test,Acute toxicity on rats,no test animal was killed
same,"urine specific Gravity, Average Value","[3]; after administration, N 25, S.D. ±5.34",1017.92
same,"urine specific Gravity, Average Value","[3]; before administration, N 25, S.D. ±5.56",1017.56
same,general improvement ratio over time,"[4]; 2, 4, 6 weeks",the improvement ratio was increased every two weeks
same,General improvement: Improvement Ratio,"[4]; 2 weeks, total 38, P group 68.6 %",73.7%
same,significance of general improvement versus P group,[4]; 4 to 6 weeks,significantly better results were obtained in the TN group than in the P group
same,General improvement: Improvement Ratio,"[4]; 4 weeks, total 39, P group 61.1 %, P = 0.0127",87.2%
same,General improvement: Improvement Ratio,"[4]; 6 weeks, total 21, P group 63.6 %, P = 0.0094",95.2%
same,General improvement: Not Changed,"[4]; 2 weeks, total 38",9
same,General improvement: Partial Improvement,"[4]; 2 weeks, total 38",13
same,General improvement: Remarkable Improvement,"[4]; 2 weeks, total 38",6
same,General improvement: Slight Improvement,"[4]; 2 weeks, total 38",9
same,General improvement: Worsened,"[4]; 2 weeks, total 38",1
same,General improvement: Not Changed,"[4]; 4 weeks, total 39",5
same,General improvement: Partial Improvement,"[4]; 4 weeks, total 39",14
same,General improvement: Remarkable Improvement,"[4]; 4 weeks, total 39",6
same,General improvement: Slight Improvement,"[4]; 4 weeks, total 39",14
same,General improvement: Worsened,"[4]; 4 weeks, total 39",0
same,General improvement: Not Changed,"[4]; 6 weeks, total 21",1
same,General improvement: Partial Improvement,"[4]; 6 weeks, total 21",7
same,General improvement: Remarkable Improvement,"[4]; 6 weeks, total 21",8
same,General improvement: Slight Improvement,"[4]; 6 weeks, total 21",5
same,General improvement: Worsened,"[4]; 6 weeks, total 21",0
same,hypotensive effect as compared with the P group,"[5]; Tables 12 to 15, hypertension alone significant at level lower than 5%",the hypotensive effect was attained in the TN administrated group as compared with the P group
same,"Maximum Pressure, Average Value, all patients","[5]; after administration (200 mg TN 3 times per day, 4 weeks), N 35, S.D. ±23.65",141.40
same,"Minimum Pressure, Average Value, patients of hypertension","[5]; after administration (4 weeks), N 22, S.D. ±13.08",87.45
same,"Maximum Pressure, Average Value, patients of hypertension","[5]; after administration (4 weeks), N 22, S.D. ±20.69, P < 0.05",148.59
same,"Minimum Pressure, Average Value, all patients","[5]; after administration (4 weeks), N 35, S.D. ±13.64",81.89
same,"Minimum Pressure, Average Value, no hypotensive agent in combination with TN","[5]; after administration, N 8, S.D. ±13.34",87.50
same,"Maximum Pressure, Average Value, no hypotensive agent in combination with TN","[5]; after administration, N 8, S.D. ±19.95, P < 0.1",146.13
same,"Minimum Pressure, Average Value, hypotensive agent administered in combination with TN","[5]; after administration, N 14, S.D. ±13.44",87.43
same,"Maximum Pressure, Average Value, hypotensive agent administered in combination with TN","[5]; after administration, N 14, S.D. ±21.71",150.00
same,"Minimum Pressure, Average Value, no hypotensive agent in combination with TN","[5]; before administration, N 8, S.D. ±16.40",87.75
same,"Maximum Pressure, Average Value, no hypotensive agent in combination with TN","[5]; before administration, N 8, S.D. ±22.60",161.50
same,"Minimum Pressure, Average Value, hypotensive agent administered in combination with TN","[5]; before administration, N 14, S.D. ±10.75",89.71
same,"Maximum Pressure, Average Value, hypotensive agent administered in combination with TN","[5]; before administration, N 14, S.D. ±17.29",159.29
same,"Minimum Pressure, Average Value, patients of hypertension","[5]; before administration, N 22, S.D. ±12.74",89.00
same,"Maximum Pressure, Average Value, patients of hypertension","[5]; before administration, N 22, S.D. ±18.88",160.09
same,"Minimum Pressure, Average Value, all patients","[5]; before administration, N 38, S.D. ±14.78",81.37
same,"Maximum Pressure, Average Value, all patients","[5]; before administration, N 38, S.D. ±25.14",144.63
same,efficacy and safety conclusion,[5]; [9],very effective and safe hypotensive agent
same,hypotensive effect on patients of hypertension versus P group,[5]; [9],higher in the TN administered group than in the P group
same,effect durability,[5]; general conclusion,high effect durability
same,deaths,[6],no deaths
same,"haematological, haemetobiological and histological surveys",[6],no manifestation of the toxicity was observed
same,inhibition of the body weight,[6],inhibition of the body weight was not observed
same,maximum blood pressure in patients of hypertension,"[7]; 2, 4 or 6 weeks' administration","lowered by 2, 4 or 6 weeks' administration below the maximum blood pressure before the start of the administration"
same,"Maximum Blood Pressure in Hypertensives, Average Value ± S.D.","[7]; 2 weeks, N 28, P < 0.05 vs before",143.8 ± 21.0
same,"Minimum Blood Pressure, Average Value±S.D.",[7]; [10],82.4±11.4
same,"Maximum Blood Pressure, Average Value±S.D.",[7]; [10],139.7±21.1
same,"Maximum Blood Pressure in Hypertensives, Average Value ± S.D.","[7]; 4 weeks, N 29, P < 0.02 vs before",143.1 ± 21.1
same,"Minimum Blood Pressure, Average Value±S.D.",[7]; [11],80.6±10.3
same,"Maximum Blood Pressure, Average Value±S.D.",[7]; [11],140.0±20.3
same,"Maximum Blood Pressure in Hypertensives, Average Value ± S.D.","[7]; 6 weeks, N 13, P < 0.05 vs before",139.2 ± 16.8
same,"Minimum Blood Pressure, Average Value±S.D.",[7]; [12],79.1±7.0
same,"Maximum Blood Pressure, Average Value±S.D.",[7]; [12],138.1±15.2
same,patients in whom administration was interrupted,"[7]; TN 200 mg three times a day, 4 or 6 weeks, P group 3 patients",2 patients
same,"Minimum Blood Pressure, Average Value±S.D.",[7]; [13],84.4±13.7
same,"Maximum Blood Pressure, Average Value±S.D.",[7]; [13],147.6±23.6
same,"Maximum Blood Pressure in Hypertensives, Average Value ± S.D.","[7]; before administration, same 13 patients as 6 weeks",151.2 ± 28.9
same,"Maximum Blood Pressure in Hypertensives, Average Value ± S.D.","[7]; before administration, same 28 patients as 2 weeks",151.0 ± 22.1
same,"Maximum Blood Pressure in Hypertensives, Average Value ± S.D.","[7]; before administration, same 29 patients as 4 weeks",154.6 ± 24.8
same,"influences on mother animals, embryos and newborn babies",[8],no influences were observed
same,teratogenetic property,[8],no teratogenetic property
